Experiments:
[1] = biological target: T1, GST-KRAS-G12V binding to CaM (Homo sapiens, UniProt P01116, G12V); assay: CaM-sepharose pulldown competition assay; settings: increasing concentrations of P14B
T1 construct: recombinant GTP-loaded GST-KRAS-G12V (1-166) with CaM-sepharose beads; made in house; host or cells: Escherichia coli BCI21 (so in the source)
Procedure: […] of recombinant GST-KRAS (1-166) (GTP loaded) and 12.5 I of CaM-sepharose beads (Cytiva; Merck) (previously washed with pull-down buffer (PDB) containing 50 mM Tris-HCl, pH 7.5, 150 mM NaCl, 0.1% (v/v) Triton X-100) were incubated in the presence of 1 mM CaCl2 or 5 mM EGTA (in a total volume of 100 I with PDB) for 60 minutes at room temperature. The unbound fraction was collected by centrifugation, and the bound fraction was washed four times with PDB with either CaCl2 or EGTA. The entire bound fraction was analysed by WB.
GST-KRAS (1-166) fusion protein was expressed in Escherichia coli BCI21 and then purified and loaded with the specific nucleotide as previously described (Villalonga et al., 2001).
To confirm the direct interaction between KRAS and P14B, surface plasmon resonance analysis was performed. Purified GST-KRAS (aminoacids 1 to 166) was immobilized and then GTP loaded. […] Given that P14B is able to bind to oncogenic KRAS (FIG. 4) most likely via the same surface that KRAS uses to interact with CaM, we analyzed the possibility that P14B can displace CaM from oncogenic KRAS. To this end, we performed an in vitro competence assay that consisted of pulling-down recombinant GTP-loaded GST-KRAS-G12V (1-166) with CaM-sepharose beads followed by incubation with increasing concentrations of P14B.

[2] = tested on: DLD-1-KO cells; assay: Cleaved caspase-3 Western blot, DLD-1-KO; assay type: cell-based, human; settings: DLD-1-KO cells treated 34 h or 48 h
Procedure: FIG. 6C is a blot showing extracts of DLD-1, DLD-1-KO and RPE cells at 34 h. and 48 h. DLD-1 cells treated with P14B for 36 h and 48 h were lysed and the expression of the apoptosis marker cleaved caspase-3 was analyzed by Western blot. Cells treated with the apoptosis inducer palmitic acid (PA) were used as a positive control.
Proteins were resolved by SDS-PAGE, transferred onto PVDF membranes (Immobilon-P, Millipore) and Western blot was performed as previously described (Cabot et al, Oncogene 2021). […]
Since both inhibition and sustained activation of RAS signaling are related to a decrease in cell survival, we analyzed the viability of the CRC cell lines DLD-1 (expressing oncogenic KRAS) and DLD-1-KO (oncogenic KRAS allele deleted), and the non-transformed cell line hTERT-RPE. […] The effect of P14B in DLD-1 cells cultured in 3D conditions was also determined. […]

[3] = biological target: T2, GST-KRAS (1-166), GTP loaded (Homo sapiens, UniProt P01116, G12V); assay: Surface plasmon resonance analysis; assay type: binding; settings: GTP-loaded GST-KRAS (aminoacids 1 to 166) immobilized; read-out: affinity constant (KD)
T2 construct: GST-KRAS (1-166) and GST were covalently immobilized; made in house; host or cells: Escherichia coli BCI21 (so in the source)
Procedure: Surface Plasmon Resonance Analysis was performed by using BIAcore T200 equipment. GST-KRAS (1-166) and GST were covalently immobilized on two of the channels of CM5 Series S Chip following manufacturers instruction. KRAS was loaded with GTP by injecting 1 mM of GTP 10 μl/min for 30 min in exchange buffer (20 mM Tris-HCl pH 7.5; 50 mM NaCl, 5% glycerol, 0.1% Triton X-100, 1 mM DTT) with 10 mM EDTA at 30° C. and loading was blocked by injecting exchange buffer with 15 mM MgCl2 at 10 μl/min for 5 min. P14B was injected at 12.5 μM, 25 μM, 38.5 μM, 50 μM, 75 μM, 100 μM and 150 μM in running buffer (150 mM NaCl, 50 mM Tris-HCl pH7.5, 2 mM MgCl2, 0.1% Triton and 5% DMSO […] Dissociation was allowed for 10 min in the same buffer. All runs were done by duplicate. Nonspecific binding was subtracted by using two linked channels (GST-KRAS minus GST). Diverse solutions (from 3% to 8%) with DMSO were also prepared to analyse its effect in the RUs, and a solvent correction was performed to reduce the error associated with the injection of the sample. […]
To confirm the direct interaction between KRAS and P14B, surface plasmon resonance analysis was performed. […] Given that P14B is able to bind to oncogenic KRAS (FIG. 4) most likely via the same surface that KRAS uses to interact with CaM, we analyzed the possibility that P14B can displace CaM from oncogenic KRAS. […]

[4] = biological target: T3, HA-KRAS-G12V interaction with BRAF, C-RAF/P-C-RAF, ARAF (Homo sapiens, UniProt P01116, G12V); assay: Co-immunoprecipitation of HA-KRASG12V with RAF family members; assay type: cell-based; settings: 10 min treatment, 100 μM
T3 construct: expressed in transfected cells; host or cells: DLD-1 KO (KRAS WT/-) clone DWT7 cells stably expressing HA-KRAS G12V
Procedure: DLD-1 KO cells stably expressing HA-KRAS G12V were serum starved for the next 24 hours before treatment with the compounds for the times indicated. Next, an IP with anti-HA antibody crosslinked to agarose beads (clone HA-7, Sigma-Aldrich A20956) was performed as previously described (Cabot et al, Oncogene 2021).
We assessed the possibility that P14B favors RAS-effector binding and consequently increases downstream RAS signaling. To this end, co-immunoprecipitation experiments were carried out to analyze the interaction of KRAS with different RAF family members upon P14B treatment. The interaction was analyzed after 10 min of P14B treatment since P—C-RAF and P-MEK were observed after 15 min (FIG. 3C). DLD-1 cells stably expressing HA-KRAS-G12V were serum-starved and then treated for 10 min with either EGF or P14B.

Ca+2-dependent GST-KRAS-G12V binding to CaM [1]: reduced
Kd [3]: 32.8 µM
KRAS-ARAF binding [4]: No differences
KRAS-BRAF interaction ([4]; with respect to non-treated cells): increase in the KRAS-BRAF interaction
SMILES: COc1ccc(C(c2c(C)n[nH]c2O)c2c(C)n[nH]c2O)cc1Oc1ccc([N+](=O)[O-])cc1 [Example P14B]
cleaved caspase-3 expression [2]: undetectable
P-C-RAF co-immunoprecipitated with KRAS ([4]; serum-starved cells): increased the levels of P—C-RAF co-immunoprecipitated with KRAS

Reference: US20260217656A1, “Compounds Affecting KRAS” (UNIVERSITAT DE BARCELONA, priority 2022, published 2026)
